# Laboratory results taken from the NIST ThermoML archive (doi:10.1016/j.jct.2014.06.017).
# Numbers after ± are expanded uncertainties.
# Assay: wn = mass fraction of the nth substance listed
# Conditions: 100 kPa, Liquid, Concentric cylinders viscometry
compound,measurement,setting,value
NCCO [2-aminoethan-1-ol] + O,viscosity,"298.2 K, w1 = 0.2",1.72 ± 0.17 mPa·s
same,viscosity,"298.2 K, w1 = 0.2499",2.02 ± 0.2 mPa·s
same,viscosity,"298.2 K, w1 = 0.3001",2.32 ± 0.23 mPa·s
same,viscosity,"303.2 K, w1 = 0.2",1.53 ± 0.15 mPa·s
same,viscosity,"303.2 K, w1 = 0.2499",1.79 ± 0.18 mPa·s
same,viscosity,"303.2 K, w1 = 0.3001",2.13 ± 0.21 mPa·s
same,viscosity,"313.2 K, w1 = 0.2",1.18 ± 0.12 mPa·s
same,viscosity,"313.2 K, w1 = 0.2499",1.32 ± 0.13 mPa·s
same,viscosity,"313.2 K, w1 = 0.3001",1.59 ± 0.16 mPa·s
same,viscosity,"323.2 K, w1 = 0.2",0.98 ± 0.1 mPa·s
same,viscosity,"323.2 K, w1 = 0.2499",1.12 ± 0.11 mPa·s
same,viscosity,"323.2 K, w1 = 0.3001",1.31 ± 0.13 mPa·s
CN(CCO)CCO [N-methyldiethanolamine] + O,viscosity,"298.2 K, w1 = 0.3502",4.07 ± 0.41 mPa·s
same,viscosity,"298.2 K, w1 = 0.4001",5.2 ± 0.52 mPa·s
same,viscosity,"298.2 K, w1 = 0.45",7.62 ± 0.77 mPa·s
same,viscosity,"303.2 K, w1 = 0.3502",3.36 ± 0.34 mPa·s
same,viscosity,"303.2 K, w1 = 0.4001",4.41 ± 0.44 mPa·s
same,viscosity,"303.2 K, w1 = 0.45",6.1 ± 0.61 mPa·s
same,viscosity,"313.2 K, w1 = 0.3502",2.56 ± 0.26 mPa·s
same,viscosity,"313.2 K, w1 = 0.4001",3.02 ± 0.3 mPa·s
same,viscosity,"313.2 K, w1 = 0.45",4.37 ± 0.44 mPa·s
same,viscosity,"323.2 K, w1 = 0.3502",2.02 ± 0.2 mPa·s
same,viscosity,"323.2 K, w1 = 0.4001",2.65 ± 0.27 mPa·s
same,viscosity,"323.2 K, w1 = 0.45",3.63 ± 0.36 mPa·s
OCCNCCO [diethanolamine] + O,viscosity,"298.2 K, w1 = 0.2001",1.92 ± 0.19 mPa·s
same,viscosity,"298.2 K, w1 = 0.25",2.61 ± 0.26 mPa·s
same,viscosity,"298.2 K, w1 = 0.3001",3.26 ± 0.33 mPa·s
same,viscosity,"303.2 K, w1 = 0.2001",1.67 ± 0.17 mPa·s
same,viscosity,"303.2 K, w1 = 0.25",2.16 ± 0.22 mPa·s
same,viscosity,"303.2 K, w1 = 0.3001",2.57 ± 0.26 mPa·s
same,viscosity,"313.2 K, w1 = 0.2001",1.32 ± 0.13 mPa·s
same,viscosity,"313.2 K, w1 = 0.25",1.67 ± 0.17 mPa·s
same,viscosity,"313.2 K, w1 = 0.3001",1.99 ± 0.2 mPa·s
same,viscosity,"323.2 K, w1 = 0.2001",1.05 ± 0.11 mPa·s
same,viscosity,"323.2 K, w1 = 0.25",1.34 ± 0.13 mPa·s
same,viscosity,"323.2 K, w1 = 0.3001",1.41 ± 0.14 mPa·s
